Measured values reported in patent US12497365B2, “4-pyridinyl formamide compound or derivative thereof, preparation method therefor, herbicidal composition and use thereof” (Qingdao Kingagroot Chemical Compound Co., Ltd., priority 2019, dated 2025).

System: Abutilon theophrasti
Experiment: Weeding effect in post-emergence stage
Format: in vivo
Details: active ingredient 2000 g/ha, 3 weeks after application, fresh weight control rate
Method in brief: (§1)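 Weeds sown in soil-filled pots under 0.5-2 cm cover were grown in a greenhouse and sprayed at the 2-3 leaf stage, 2 weeks after sowing. Compounds in acetone with Tween 80 and 1.5 liter/ha methyl oleate concentrate were applied at 2000, 1000, 500, 250 or 125 g/ha. Fresh weight control rate was scored after 3 weeks.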

Structure (SMILES) | Weeding effect, activity level (growth control rate), Abutilon theophrasti
Cc1ccc(-c2nccc(C(=O)Nc3nnnn3C)c2Cl)s1 [Compound 1-187] | 5 (Level 5: growth control rate is above 85%)
Cn1nnnc1NC(=O)c1ccnc(-c2ccc(Cl)c(F)c2)c1Cl [Compound 1-91] | 5 (Level 5: growth control rate is above 85%)
COc1ccc(-c2nccc(C(=O)Nc3nnnn3C)c2Cl)cn1 [Compound 1-143] | 5 (Level 5: growth control rate is above 85%)
CSc1c(C(=O)Nc2nnnn2C)ccnc1-c1ccc(C(N)=O)cc1 [Compound 1-2053] | 5 (Level 5: growth control rate is above 85%)
Cc1ccncc1-c1nccc(C(=O)Nc2nnnn2C)c1Cl [Compound 1-125] | 5 (Level 5: growth control rate is above 85%)
Cn1nnnc1NC(=O)c1ccnc(-c2cccnc2)c1Cl [Compound 1-124] | 5 (Level 5: growth control rate is above 85%)
Cn1nnnc1NC(=O)c1ccnc(-c2cc(C(F)(F)F)ccc2F)c1Cl [Compound 1-75] | 5 (Level 5: growth control rate is above 85%)
CC(C)=NOc1c(C(=O)Nc2nnnn2C)ccnc1-c1ccc(F)cc1 [Compound 1-209] | 5 (Level 5: growth control rate is above 85%)
Cn1nnnc1NC(=O)c1ccnc(-c2cncc(F)c2)c1Cl [Compound 1-128] | 5 (Level 5: growth control rate is above 85%)
COCCc1c(C(=O)Nc2nnnn2C)ccnc1-c1ccc(F)cc1 [Compound 1-217] | 5 (Level 5: growth control rate is above 85%)
Cn1nnnc1NC(=O)c1ccnc(-c2cccc3c2OC(F)(F)O3)c1Cl [Compound 1-1972] | 5 (Level 5: growth control rate is above 85%)
CCC(OC)c1c(C(=O)Nc2nnnn2C)ccnc1-c1ccc(F)cc1 (stereo not shown) [Compound 1-216] | 5 (Level 5: growth control rate is above 85%)
Cn1nnnc1NC(=O)c1ccnc(-c2ccc(F)cc2)c1C#N [Compound 1-213] | 5 (Level 5: growth control rate is above 85%)
Cn1nnnc1NC(=O)c1ccnc(-c2ccc(C#N)cc2)c1Cl [Compound 1-50] | 5 (Level 5: growth control rate is above 85%)
Cn1nnnc1NC(=O)c1ccnc(-c2ccc(Cl)s2)c1Cl [Compound 1-189] | 5 (Level 5: growth control rate is above 85%)
O=C(Nc1ccon1)c1ccnc(-c2ccc(F)cc2)c1Cl [Compound 1-1286] | 5 (Level 5: growth control rate is above 85%)
Cn1nnnc1NC(=O)c1ccnc(-c2ccc(F)c(C(F)(F)F)c2)c1Cl [Compound 1-85] | 5 (Level 5: growth control rate is above 85%)
Cn1nnnc1NC(=O)c1ccnc(-c2ccc(OC(F)(F)F)cc2)c1Cl [Compound 1-33] | 5 (Level 5: growth control rate is above 85%)
Cn1nnnc1NC(=O)c1ccnc(-c2ccccn2)c1Cl [Compound 1-119] | 5 (Level 5: growth control rate is above 85%)
Cn1nnnc1NC(=O)c1ccnc(-c2cccc3ccccc23)c1Cl [Compound 1-111] | 5 (Level 5: growth control rate is above 85%)
COc1ncc(-c2nccc(C(=O)Nc3nnnn3C)c2Cl)cn1 [Compound 1-161] | 5 (Level 5: growth control rate is above 85%)
Cn1nnnc1NC(=O)c1ccnc(-c2cccc(F)c2F)c1Cl [Compound 1-62] | 5 (Level 5: growth control rate is above 85%)

System: Amaranthus retroflexus L.
Experiment: Weeding effect in post-emergence stage
Format: in vivo
Details: active ingredient 2000 g/ha, 3 weeks after application, fresh weight control rate
Method in brief: as §1

Structure (SMILES) | Weeding effect, activity level (growth control rate), Amaranthus retroflexus L.
Cc1ccc(-c2nccc(C(=O)Nc3nnnn3C)c2Cl)s1 [Compound 1-187] | 5 (Level 5: growth control rate is above 85%)
Cn1nnnc1NC(=O)c1ccnc(-c2ccc(Cl)c(F)c2)c1Cl [Compound 1-91] | 5 (Level 5: growth control rate is above 85%)
COc1ccc(-c2nccc(C(=O)Nc3nnnn3C)c2Cl)cn1 [Compound 1-143] | 5 (Level 5: growth control rate is above 85%)
CSc1c(C(=O)Nc2nnnn2C)ccnc1-c1ccc(C(N)=O)cc1 [Compound 1-2053] | 5 (Level 5: growth control rate is above 85%)
Cc1ccncc1-c1nccc(C(=O)Nc2nnnn2C)c1Cl [Compound 1-125] | 5 (Level 5: growth control rate is above 85%)
Cn1nnnc1NC(=O)c1ccnc(-c2cccnc2)c1Cl [Compound 1-124] | 5 (Level 5: growth control rate is above 85%)
Cn1nnnc1NC(=O)c1ccnc(-c2cc(C(F)(F)F)ccc2F)c1Cl [Compound 1-75] | 5 (Level 5: growth control rate is above 85%)
CC(C)=NOc1c(C(=O)Nc2nnnn2C)ccnc1-c1ccc(F)cc1 [Compound 1-209] | 5 (Level 5: growth control rate is above 85%)
Cn1nnnc1NC(=O)c1ccnc(-c2cncc(F)c2)c1Cl [Compound 1-128] | 5 (Level 5: growth control rate is above 85%)
COCCc1c(C(=O)Nc2nnnn2C)ccnc1-c1ccc(F)cc1 [Compound 1-217] | 5 (Level 5: growth control rate is above 85%)
Cn1nnnc1NC(=O)c1ccnc(-c2cccc3c2OC(F)(F)O3)c1Cl [Compound 1-1972] | 5 (Level 5: growth control rate is above 85%)
CCC(OC)c1c(C(=O)Nc2nnnn2C)ccnc1-c1ccc(F)cc1 (stereo not shown) [Compound 1-216] | 5 (Level 5: growth control rate is above 85%)
Cn1nnnc1NC(=O)c1ccnc(-c2ccc(F)cc2)c1C#N [Compound 1-213] | 5 (Level 5: growth control rate is above 85%)
Cn1nnnc1NC(=O)c1ccnc(-c2ccc(C#N)cc2)c1Cl [Compound 1-50] | 5 (Level 5: growth control rate is above 85%)
Cn1nnnc1NC(=O)c1ccnc(-c2ccc(Cl)s2)c1Cl [Compound 1-189] | 5 (Level 5: growth control rate is above 85%)
O=C(Nc1ccon1)c1ccnc(-c2ccc(F)cc2)c1Cl [Compound 1-1286] | 5 (Level 5: growth control rate is above 85%)
Cn1nnnc1NC(=O)c1ccnc(-c2ccc(F)c(C(F)(F)F)c2)c1Cl [Compound 1-85] | 5 (Level 5: growth control rate is above 85%)
Cn1nnnc1NC(=O)c1ccnc(-c2ccc(OC(F)(F)F)cc2)c1Cl [Compound 1-33] | 5 (Level 5: growth control rate is above 85%)
Cn1nnnc1NC(=O)c1ccnc(-c2ccccn2)c1Cl [Compound 1-119] | 5 (Level 5: growth control rate is above 85%)
Cn1nnnc1NC(=O)c1ccnc(-c2cccc3ccccc23)c1Cl [Compound 1-111] | 5 (Level 5: growth control rate is above 85%)
COc1ncc(-c2nccc(C(=O)Nc3nnnn3C)c2Cl)cn1 [Compound 1-161] | 5 (Level 5: growth control rate is above 85%)
Cn1nnnc1NC(=O)c1ccnc(-c2cccc(F)c2F)c1Cl [Compound 1-62] | 5 (Level 5: growth control rate is above 85%)

System: Chenopodium album
Experiment: Weeding effect in post-emergence stage
Format: in vivo
Details: active ingredient 2000 g/ha, 3 weeks after application, fresh weight control rate
Method in brief: as §1

Structure (SMILES) | Weeding effect, activity level (growth control rate), Chenopodium album
Cc1ccc(-c2nccc(C(=O)Nc3nnnn3C)c2Cl)s1 [Compound 1-187] | 5 (Level 5: growth control rate is above 85%)
Cn1nnnc1NC(=O)c1ccnc(-c2ccc(Cl)c(F)c2)c1Cl [Compound 1-91] | 5 (Level 5: growth control rate is above 85%)
COc1ccc(-c2nccc(C(=O)Nc3nnnn3C)c2Cl)cn1 [Compound 1-143] | 5 (Level 5: growth control rate is above 85%)
CSc1c(C(=O)Nc2nnnn2C)ccnc1-c1ccc(C(N)=O)cc1 [Compound 1-2053] | 5 (Level 5: growth control rate is above 85%)
Cc1ccncc1-c1nccc(C(=O)Nc2nnnn2C)c1Cl [Compound 1-125] | 5 (Level 5: growth control rate is above 85%)
Cn1nnnc1NC(=O)c1ccnc(-c2cccnc2)c1Cl [Compound 1-124] | 5 (Level 5: growth control rate is above 85%)
Cn1nnnc1NC(=O)c1ccnc(-c2cc(C(F)(F)F)ccc2F)c1Cl [Compound 1-75] | 5 (Level 5: growth control rate is above 85%)
CC(C)=NOc1c(C(=O)Nc2nnnn2C)ccnc1-c1ccc(F)cc1 [Compound 1-209] | 5 (Level 5: growth control rate is above 85%)
Cn1nnnc1NC(=O)c1ccnc(-c2cncc(F)c2)c1Cl [Compound 1-128] | 5 (Level 5: growth control rate is above 85%)
COCCc1c(C(=O)Nc2nnnn2C)ccnc1-c1ccc(F)cc1 [Compound 1-217] | 5 (Level 5: growth control rate is above 85%)
Cn1nnnc1NC(=O)c1ccnc(-c2cccc3c2OC(F)(F)O3)c1Cl [Compound 1-1972] | 5 (Level 5: growth control rate is above 85%)
CCC(OC)c1c(C(=O)Nc2nnnn2C)ccnc1-c1ccc(F)cc1 (stereo not shown) [Compound 1-216] | 5 (Level 5: growth control rate is above 85%)
Cn1nnnc1NC(=O)c1ccnc(-c2ccc(F)cc2)c1C#N [Compound 1-213] | 5 (Level 5: growth control rate is above 85%)
Cn1nnnc1NC(=O)c1ccnc(-c2ccc(C#N)cc2)c1Cl [Compound 1-50] | 5 (Level 5: growth control rate is above 85%)
Cn1nnnc1NC(=O)c1ccnc(-c2ccc(Cl)s2)c1Cl [Compound 1-189] | 5 (Level 5: growth control rate is above 85%)
O=C(Nc1ccon1)c1ccnc(-c2ccc(F)cc2)c1Cl [Compound 1-1286] | 5 (Level 5: growth control rate is above 85%)
Cn1nnnc1NC(=O)c1ccnc(-c2ccc(F)c(C(F)(F)F)c2)c1Cl [Compound 1-85] | 5 (Level 5: growth control rate is above 85%)
Cn1nnnc1NC(=O)c1ccnc(-c2ccc(OC(F)(F)F)cc2)c1Cl [Compound 1-33] | 5 (Level 5: growth control rate is above 85%)
Cn1nnnc1NC(=O)c1ccnc(-c2ccccn2)c1Cl [Compound 1-119] | 5 (Level 5: growth control rate is above 85%)
Cn1nnnc1NC(=O)c1ccnc(-c2cccc3ccccc23)c1Cl [Compound 1-111] | 5 (Level 5: growth control rate is above 85%)
COc1ncc(-c2nccc(C(=O)Nc3nnnn3C)c2Cl)cn1 [Compound 1-161] | 5 (Level 5: growth control rate is above 85%)
Cn1nnnc1NC(=O)c1ccnc(-c2cccc(F)c2F)c1Cl [Compound 1-62] | 5 (Level 5: growth control rate is above 85%)

System: Descurainia sophia
Experiment: Weeding effect in post-emergence stage
Format: in vivo
Details: active ingredient 2000 g/ha, 3 weeks after application, fresh weight control rate
Method in brief: as §1

Structure (SMILES) | Weeding effect, activity level (growth control rate), Descurainia sophia
Cc1ccc(-c2nccc(C(=O)Nc3nnnn3C)c2Cl)s1 [Compound 1-187] | 5 (Level 5: growth control rate is above 85%)
Cn1nnnc1NC(=O)c1ccnc(-c2ccc(Cl)c(F)c2)c1Cl [Compound 1-91] | 5 (Level 5: growth control rate is above 85%)
COc1ccc(-c2nccc(C(=O)Nc3nnnn3C)c2Cl)cn1 [Compound 1-143] | 5 (Level 5: growth control rate is above 85%)
CSc1c(C(=O)Nc2nnnn2C)ccnc1-c1ccc(C(N)=O)cc1 [Compound 1-2053] | 5 (Level 5: growth control rate is above 85%)
Cc1ccncc1-c1nccc(C(=O)Nc2nnnn2C)c1Cl [Compound 1-125] | 5 (Level 5: growth control rate is above 85%)
Cn1nnnc1NC(=O)c1ccnc(-c2cccnc2)c1Cl [Compound 1-124] | 5 (Level 5: growth control rate is above 85%)
Cn1nnnc1NC(=O)c1ccnc(-c2cc(C(F)(F)F)ccc2F)c1Cl [Compound 1-75] | 5 (Level 5: growth control rate is above 85%)
CC(C)=NOc1c(C(=O)Nc2nnnn2C)ccnc1-c1ccc(F)cc1 [Compound 1-209] | 5 (Level 5: growth control rate is above 85%)
Cn1nnnc1NC(=O)c1ccnc(-c2cncc(F)c2)c1Cl [Compound 1-128] | 5 (Level 5: growth control rate is above 85%)
COCCc1c(C(=O)Nc2nnnn2C)ccnc1-c1ccc(F)cc1 [Compound 1-217] | 5 (Level 5: growth control rate is above 85%)
Cn1nnnc1NC(=O)c1ccnc(-c2cccc3c2OC(F)(F)O3)c1Cl [Compound 1-1972] | 5 (Level 5: growth control rate is above 85%)
CCC(OC)c1c(C(=O)Nc2nnnn2C)ccnc1-c1ccc(F)cc1 (stereo not shown) [Compound 1-216] | 5 (Level 5: growth control rate is above 85%)
Cn1nnnc1NC(=O)c1ccnc(-c2ccc(F)cc2)c1C#N [Compound 1-213] | 5 (Level 5: growth control rate is above 85%)
Cn1nnnc1NC(=O)c1ccnc(-c2ccc(C#N)cc2)c1Cl [Compound 1-50] | 5 (Level 5: growth control rate is above 85%)
Cn1nnnc1NC(=O)c1ccnc(-c2ccc(Cl)s2)c1Cl [Compound 1-189] | 5 (Level 5: growth control rate is above 85%)
O=C(Nc1ccon1)c1ccnc(-c2ccc(F)cc2)c1Cl [Compound 1-1286] | 5 (Level 5: growth control rate is above 85%)
Cn1nnnc1NC(=O)c1ccnc(-c2ccc(F)c(C(F)(F)F)c2)c1Cl [Compound 1-85] | 5 (Level 5: growth control rate is above 85%)
Cn1nnnc1NC(=O)c1ccnc(-c2ccc(OC(F)(F)F)cc2)c1Cl [Compound 1-33] | 5 (Level 5: growth control rate is above 85%)
Cn1nnnc1NC(=O)c1ccnc(-c2ccccn2)c1Cl [Compound 1-119] | 5 (Level 5: growth control rate is above 85%)
Cn1nnnc1NC(=O)c1ccnc(-c2cccc3ccccc23)c1Cl [Compound 1-111] | 5 (Level 5: growth control rate is above 85%)
COc1ncc(-c2nccc(C(=O)Nc3nnnn3C)c2Cl)cn1 [Compound 1-161] | 5 (Level 5: growth control rate is above 85%)
Cn1nnnc1NC(=O)c1ccnc(-c2cccc(F)c2F)c1Cl [Compound 1-62] | 5 (Level 5: growth control rate is above 85%)
